In the NIST ThermoML archive (doi:10.1021/acs.jced.8b01046):
Values joined by “and” are separate entries in the source; they are usually repeats but may differ in a detail not shown here. Identical values can stand only once.

Tests used:
[1] = Liquid; for mass density: Vibrating tube method
[2] = wn = mass fraction of the nth substance listed; conditions: 102 kPa, Liquid, Vibrating tube method

CCCCCCCC(=O)OCC(COC(=O)CCCCCCC)OC(=O)CCCCCCC [1,2,3-propanetriol trioctanoate]
[1]
Conditions | mass density [kg/m3] | vapor or sublimation pressure [kPa]
293.15 K, 102 kPa | 952.7 | –
298.15 K, 102 kPa | 948.9 | –
298.15 K, 120 kPa | 949.9 | –
298.15 K, 9830 kPa | 955.5 | –
298.15 K, 20100 kPa | 961.3 | –
298.15 K, 30020 kPa | 966.6 | –
298.15 K, 40050 kPa | 971.9 | –
298.15 K, 50040 kPa | 977.1 | –
303.15 K, 102 kPa | 944.9 | –
313.15 K, 102 kPa | 937.4 | –
333.15 K, 102 kPa | 922.5 | –
353.15 K, 102 kPa | 907.7 | –
403.2 K, Transpiration method | – | 0.0002069
408.2 K, Transpiration method | – | 0.0003133
413.2 K, Transpiration method | – | 0.0004698
423.2 K, Transpiration method | – | 0.001006
433.2 K, Transpiration method | – | 0.001977
443.2 K, Transpiration method | – | 0.004016
448.2 K, Transpiration method | – | 0.005491

CCCCCCCCCC(=O)OCC(COC(=O)CCCCCCCCC)OC(=O)CCCCCCCCC [1,2,3-propanetriyl tridecanoate]
[1]
Conditions | mass density [kg/m3] | vapor or sublimation pressure
293.15 K, 102 kPa | 921.6 | –
298.15 K, 102 kPa | 917.9 | –
303.15 K, 102 kPa | 913.6 | –
313.15 K, 102 kPa | 906.2 | –
333.15 K, 102 kPa | 891 | –
348.5 K, Langmuir technique | – | 1.39e-08 kPa and 1.36e-08 kPa
353.15 K, 102 kPa | 875.9 | –
353.48 K, Langmuir technique | – | 2.94e-08 kPa and 2.9e-08 kPa
358.38 K, Langmuir technique | – | 5.99e-08 kPa
363.18 K, Langmuir technique | – | 1.19e-07 kPa and 1.2e-07 kPa
367.8 K, Langmuir technique | – | 2.27e-07 kPa
367.81 K, Langmuir technique | – | 2.23e-07 kPa

CCCCCCCCCC(=O)OCC(COC(=O)CCCCCCCCC)OC(=O)CCCCCCCCC [1,2,3-propanetriyl tridecanoate] + CCCCCCCCO
mass density [kg/m3], [2]
Conditions | 293.15 K | 298.15 K | 303.15 K | 313.15 K | 333.15 K | 353.15 K
w1 = 0.016 | 826.5 | 823.1 | 819.5 | 812.6 | 798.6 | 783.8
w1 = 0.0385 | 828.7 | 825.1 | 821.6 | 814.7 | 800.7 | 785.9
w1 = 0.0772 | 832.5 | 829 | 825.4 | 818.5 | 804.3 | 789.5
w1 = 0.1287 | 837.4 | 833.9 | 830.3 | 823.3 | 809.1 | 794.4
w1 = 1 | 921.6 | 917.9 | 913.6 | 906.2 | 891 | 875.9

CCCCCCCCCCCC(=O)OCC(COC(=O)CCCCCCCCCCC)OC(=O)CCCCCCCCCCC [1,2,3-propanetriyl tridodecanoate]
[1], 100 kPa
Conditions | mass density [kg/m3]
303.15 K | 905.1
313.15 K | 899.6
333.15 K | 886.9
353.15 K | 870.4

CCCCCCCCCCCC(=O)OCC(COC(=O)CCCCCCCCCCC)OC(=O)CCCCCCCCCCC [1,2,3-propanetriyl tridodecanoate] + CCCCCCCCO
mass density [kg/m3], [2]
Conditions | 293.15 K | 298.15 K | 303.15 K | 313.15 K | 333.15 K | 353.15 K
w1 = 0.019 | 826.7 | 823.3 | 819.7 | 812.8 | 798.7 | 784
w1 = 0.051 | 829.5 | 826.2 | 822.5 | 815.6 | 801.5 | 786.8
w1 = 0.096 | – | – | 826.8 | 819.7 | 805.6 | 790.9
w1 = 0.149 | – | – | 831 | 824 | 809.9 | 795.2
w1 = 1 | – | – | 905.1 | 899.6 | 886.9 | 870.4
